Series [1] has as its system Human keratinocytes. The experiment in a line: Cell toxicity by lactate dehydrogenase release in keratinocyte culture. In kind it is cell-based. The conditions noted are these: highest concentration tested.
The target of a further series is T1, PPAR gamma (Mus musculus, UniProt P37238).
T1 sequence (P37238 1-505): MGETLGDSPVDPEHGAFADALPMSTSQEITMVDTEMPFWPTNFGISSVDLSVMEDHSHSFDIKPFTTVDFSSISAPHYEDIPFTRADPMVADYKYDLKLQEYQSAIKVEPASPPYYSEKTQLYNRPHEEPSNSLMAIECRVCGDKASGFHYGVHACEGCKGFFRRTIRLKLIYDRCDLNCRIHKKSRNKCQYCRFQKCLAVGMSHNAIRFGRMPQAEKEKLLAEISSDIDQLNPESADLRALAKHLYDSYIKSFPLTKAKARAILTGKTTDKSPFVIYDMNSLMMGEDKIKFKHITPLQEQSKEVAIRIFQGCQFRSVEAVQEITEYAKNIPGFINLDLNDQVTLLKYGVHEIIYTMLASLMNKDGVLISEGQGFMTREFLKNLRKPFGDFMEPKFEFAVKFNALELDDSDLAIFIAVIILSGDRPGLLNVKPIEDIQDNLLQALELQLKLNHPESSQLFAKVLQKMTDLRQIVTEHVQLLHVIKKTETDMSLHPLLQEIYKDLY
The experiment in a line: In vitro molecular assays of PPAR gamma activation.

Series [2] deals with 3T3 L 1 fibroblasts. The experiment in a line: 3T3 L1 differentiation into adipocytes (morphology, oil red O staining). In kind it is cell-based. The settings on record: 3T3L1 cells. How it is done:
(§1) This example illustrates the effects of compound 87 and troglitazone on proliferation of 3T3 L 1 fibroblasts and differentiation into adipocytes. 3T3L1 cells were incubated with varying concentrations of either compound 87 or troglitazone and the effects on cell proliferation determined by measurement of cell numbers. […] The compounds of the present invention are capable of preventing cell proliferation without inducing adipogenesis and represent useful agents for treatment and prevention of obesity.

Series [3] deals with Human HT-29 colon cancer cells. The experiment in a line: HT-29 colon cancer cell proliferation (cell numbers). The format is cell-based.
The test system of series [4] is insulin resistant obese Zucker rats. The series is described as follows: Triglyceride levels in insulin resistant obese Zucker rats. The format is in vivo, rat. The settings on record: oral 100 mg/kg/day for one week. From the text:
The drug was suspended in a mixture of 0.5% carboxymethylcellulose and administered by gavage.

The test system of series [5] is Human keratinocytes. The series is described as follows: Human keratinocyte proliferation (cell numbers). The format is cell-based. The settings on record: varying concentrations.
The subject of series [6] is 3T3 L 1 fibroblasts. The series is described as follows: 3T3 L1 fibroblast proliferation (cell numbers). In kind it is cell-based. The conditions noted are these: 3T3L1 cells. How it is done:
as §1

The test system of series [7] is Human MCF-7 breast cancer cells. The series is described as follows: MCF-7 breast cancer cell proliferation (cell numbers). The format is cell-based. The conditions noted are these: MCF-7, varying concentrations.
Series [8] concerns insulin resistant obese Zucker rats. The series is described as follows: Serum insulin and glucose in insulin resistant obese Zucker rats. The format is in vivo, rat. The conditions noted are these: oral 100 mg/kg/day for one week, versus placebo controls. From the text: The drug was suspended in a mixture of 0.5% carboxymethylcellulose and administered by gavage. […] After one week, blood samples were obtained for measurement of serum insulin levels by radioimmunoassay and serum glucose levels by glucose oxidase method. […] The effects of a higher dose of orally administered Rezulin® (troglitazone) on serum insulin and glucose levels in male obese Zucker rats as reported by Fujiwara et al., Diabetes 37.1549 are shown for comparison purposes.

Series [9] has as its system Human MDA-MB-23 1 breast cancer cells. The series is described as follows: MDA-MB-231 breast cancer cell proliferation (cell numbers). In kind it is cell-based. How it is done: […]. […] Human MDA-MB-23 1 breast cancer cells were incubated with varying concentrations of either compound 86 or troglitazone and the effects on cell proliferation determined by measurement of cell numbers. […]. Compound 86 inhibits growth of human breast cancer cells.

For series [10] the following is noted: Ulrich et al., U.S. Pat. No. 5,728,735; cited from earlier work.

`Cc1c(C)c2c(c(C)c1O)CCC(C)(COc1ccc(CC3SC(=O)NC3=O)cc1)O2` (centres unmarked) [troglitazone, reference compound]: the “cell toxicity (release of lactate dehydrogenase in the culture medium)” value in the series with Human keratinocytes [1] is recorded as “associated with cell toxicity”.

Regarding `CN(C(=O)CCCCC1CCSS1)c1ccc(CC2SC(=O)NC2=O)cc1` (centres unmarked) [compound 87], at PPAR gamma, the “activation of PPAR gamma” value is on record as “did not activate PPAR gamma”. Further, the “adipogenesis and conversion of the fibroblasts to adipocytes” value with 3T3 L 1 fibroblasts [2] is “but not compound 87 induced adipogenesis”.

With `CN(CCOc1ccc(CC2SC(=O)NC2=O)cc1)C(=O)CCCCC1CCSS1` (centres unmarked) [compound 12], in series [3] (HT-29), the “potency in inhibiting malignant cell proliferation compared with troglitazone” value is “more potent than troglitazone”. Further, the “cell proliferation (cell numbers)” value in series [3] (HT-29, varying concentrations) is recorded as “dose dependent inhibition of cell proliferation”; in the series with Human keratinocytes [5], “dose dependent inhibition of cell proliferation”; in series [7], “dose dependent inhibition of malignant cell proliferation”. The triglyceride levels result in series [4] is “potent ability to reduce triglyceride levels”. Further, the “potency of inhibition of fibroblast proliferation compared with troglitazone” value with 3T3 L 1 fibroblasts [6] is recorded as “in a more potent fashion than troglitazone”. The “fibroblast proliferation (cell numbers)” value in the series with 3T3 L 1 fibroblasts [6] (varying concentrations) is “dose dependent inhibition of fibroblast proliferation”. The “adipogenesis and conversion of the fibroblasts to adipocytes” value in the series on 3T3 L 1 fibroblasts [2] is reported as “potent inducers of adipogenesis”. In addition, the serum glucose levels entry in series [8] (glucose oxidase method) is on record as “reductions in glucose levels”. Also, the serum insulin levels result in series [8] (radioimmunoassay) is “reductions in serum insulin levels”. The “cell toxicity (release of lactate dehydrogenase in the culture medium)” value in the series with Human keratinocytes [1] was “without inducing cell toxicity”.

As for `O=C(CCCCC1CCSS1)NCCOc1ccc(CC2SC(=O)NC2=O)cc1` (centres unmarked) [compound 86], the “potency in inhibiting malignant cell proliferation compared with troglitazone” value in [9] (MDA-MB-23 1) was “more potent than troglitazone”. Further, the “cell proliferation (cell numbers)” value in [9] (MDA-MB-23 1, varying concentrations) is recorded as “dose dependent inhibition of cell proliferation”.

For the compound `O=C(O)CCCC[C@@H]1CCSS1` [R-lipoic acid], the “anti-inflammatory activity, factor stronger than that of the racemate” value in [10] was 10.
